From US11076594B2, “Pyrazolone compound or salt thereof, preparation method therefor, herbicide composition and use thereof” (QINGDAO KINGAGROOT CHEMICAL COMPOUNDS CO., LTD., priority 2015, dated 2021) come the findings set out here.

Each structure is given as a SMILES string.

Format in all cases: in vivo
The subject of one series is Indian mallow. The series is described as follows: weed control effect in post-emergence stage (Table 1). Also on record: key: Level 10: completely dead; Level 9: above 95% growth control rate; Level 8: above 90% growth control rate; Level 7: above 80% growth control rate; Level 6: above 70% growth control rate; Level 5: above 60% growth control rate; Level 4: above 50% growth control rate; Level 3: above 20% growth control rate; Level 2: 5%-20% growth control rate; Level 1: below 5% growth control rate. To be noted: post-emergence spray at 4-5 leaf stage, 250 g/ha active ingredient with 450 kg/ha water, rated after 3 weeks in greenhouse. An outline of the steps: (§1)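 Weeds and crops grown in soil-filled pots in a greenhouse were sprayed at the 4-5 leaf stage (2-3 weeks after sowing). Compounds were applied in acetone with tween 80, diluted in water. After 3 weeks' culture, growth control was scored as fresh weight control rate.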

A further series has as its system bidens bipinnata. The series is described as above. As to conditions: post-emergence spray at 4-5 leaf stage, 250 g/ha active ingredient with 450 kg/ha water, rated after 3 weeks in greenhouse. On the set-up: key: Level 10: completely dead; Level 9: above 95% growth control rate; Level 8: above 90% growth control rate; Level 7: above 80% growth control rate; Level 6: above 70% growth control rate; Level 5: above 60% growth control rate; Level 4: above 50% growth control rate; Level 3: above 20% growth control rate; Level 2: 5%-20% growth control rate; Level 1: below 5% growth control rate. An outline of the steps:
as §1

In a further series the test system is crab grass. Described as above. On the set-up: key: Level 10: completely dead; Level 9: above 95% growth control rate; Level 8: above 90% growth control rate; Level 7: above 80% growth control rate; Level 6: above 70% growth control rate; Level 5: above 60% growth control rate; Level 4: above 50% growth control rate; Level 3: above 20% growth control rate; Level 2: 5%-20% growth control rate; Level 1: below 5% growth control rate. To be noted: post-emergence spray at 4-5 leaf stage, 250 g/ha active ingredient with 450 kg/ha water, rated after 3 weeks in greenhouse. An outline of the steps: as §1

In a further series the test system is echinochloa. The description is as above. Also on record: key: Level 10: completely dead; Level 9: above 95% growth control rate; Level 8: above 90% growth control rate; Level 7: above 80% growth control rate; Level 6: above 70% growth control rate; Level 5: above 60% growth control rate; Level 4: above 50% growth control rate; Level 3: above 20% growth control rate; Level 2: 5%-20% growth control rate; Level 1: below 5% growth control rate. To be noted: post-emergence spray at 4-5 leaf stage, 250 g/ha active ingredient with 450 kg/ha water, rated after 3 weeks in greenhouse. An outline of the steps:
as §1

A further series concerns foxtail. Described as above. Also on record: key: Level 10: completely dead; Level 9: above 95% growth control rate; Level 8: above 90% growth control rate; Level 7: above 80% growth control rate; Level 6: above 70% growth control rate; Level 5: above 60% growth control rate; Level 4: above 50% growth control rate; Level 3: above 20% growth control rate; Level 2: 5%-20% growth control rate; Level 1: below 5% growth control rate. To be noted: post-emergence spray at 4-5 leaf stage, 250 g/ha active ingredient with 450 kg/ha water, rated after 3 weeks in greenhouse. An outline of the steps:
as §1

For the next series, the system named is rorippa indica. The description is as above. Also on record: key: Level 10: completely dead; Level 9: above 95% growth control rate; Level 8: above 90% growth control rate; Level 7: above 80% growth control rate; Level 6: above 70% growth control rate; Level 5: above 60% growth control rate; Level 4: above 50% growth control rate; Level 3: above 20% growth control rate; Level 2: 5%-20% growth control rate; Level 1: below 5% growth control rate. To be noted: post-emergence spray at 4-5 leaf stage, 250 g/ha active ingredient with 450 kg/ha water, rated after 3 weeks in greenhouse. An outline of the steps: as §1

Another series relates to corn. The series is described as follows: post-emergence stage experiment, crop (Table 1). To be noted: post-emergence spray at 4-5 leaf stage, 250 g/ha active ingredient with 450 kg/ha water, rated after 3 weeks in greenhouse. An outline of the steps: as §1
For series [1], the system named is wheat. The series is described as follows: post-emergence stage experiment, crop (Table 1). As to conditions: post-emergence spray at 4-5 leaf stage, 250 g/ha active ingredient with 450 kg/ha water, rated after 3 weeks in greenhouse. An outline of the steps: as §1
A further series has as its system rice. Briefly: post-emergence stage experiment, crop (Table 1). As to conditions: post-emergence spray at 4-5 leaf stage, 250 g/ha active ingredient with 450 kg/ha water, rated after 3 weeks in greenhouse. An outline of the steps: as §1
Another series relates to alopecurus japonicas. The series is described as follows: wheat field resistant weed control, greenhouse spray at 4 leaf stage. As to conditions: sprayed at 4 leaf stage, 4 weeks after treatment, resistant to ALS and ACCase inhibitor herbicides. Also on record: key: Level 10: completely dead; Level 9: above 95% growth control rate; Level 8: above 90% growth control rate; Level 7: above 80% growth control rate; Level 6: above 70% growth control rate; Level 5: above 60% growth control rate; Level 4: above 50% growth control rate; Level 3: above 20% growth control rate; Level 2: 5%-20% growth control rate; Level 1: below 5% growth control rate. The method, then: The activity level standard of harmful plant destruction (i.e. growth control rate) is as follows:
The above described growth control rate is fresh weight control rate.
The seeds of alopecurus japonicas, flixweed, shepherd's purse, corn gromwell, chickweed, beckmannia syzigachne, and annual ryegrass and wheat seeds were put into a plastic pot loaded with soil, and then covered with 0.5-2 cm soil, the seeds were allowed to grow in good greenhouse environment. The test plants were treated at 4 leaf stage 2-3 weeks after sowing. The test compounds of the present invention were dissolved in acetone respectively, then added with methyl oleate emulsion and diluted by certain amount of water to certain concentration. The solution was sprayed to the plant with a sprayer. Then the plants were cultured for 4 weeks in greenhouse.

Series [2] has as its system wheat. The series is described as follows: wheat field test, crop selectivity, greenhouse spray at 4 leaf stage. To be noted: 4 weeks after treatment. An outline of the steps:
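Read-out: fresh weight control rate, scored 4 weeks after a post-emergence spray. Treatment at 4 leaf stage (2-3 weeks after sowing); compound dissolved in acetone, with methyl oleate emulsion, diluted with water.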

Another series concerns chickweed. The series is described as follows: wheat field resistant broadleaf weed control, greenhouse spray at 4 leaf stage. On the set-up: key: Level 10: completely dead; Level 9: above 95% growth control rate; Level 8: above 90% growth control rate; Level 7: above 80% growth control rate; Level 6: above 70% growth control rate; Level 5: above 60% growth control rate; Level 4: above 50% growth control rate; Level 3: above 20% growth control rate; Level 2: 5%-20% growth control rate; Level 1: below 5% growth control rate. As to conditions: 250 g/ha of the active substance; 4 weeks after treatment; ALS inhibitor resistant. An outline of the steps:
(§2)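 Potted plants grown in greenhouse were sprayed at the 4 leaf stage, 2–3 weeks post-sowing, with compound in acetone plus methyl oleate emulsion diluted in water. After 4 weeks of further greenhouse culture, growth control was scored as fresh weight control rate.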

The subject of another series is corn gromwell. Described as above. As to conditions: 250 g/ha of the active substance; 4 weeks after treatment; ALS inhibitor resistant. Also on record: key: Level 10: completely dead; Level 9: above 95% growth control rate; Level 8: above 90% growth control rate; Level 7: above 80% growth control rate; Level 6: above 70% growth control rate; Level 5: above 60% growth control rate; Level 4: above 50% growth control rate; Level 3: above 20% growth control rate; Level 2: 5%-20% growth control rate; Level 1: below 5% growth control rate. An outline of the steps:
as §2

In another series the test system is flixweed. Described as above. On the set-up: key: Level 10: completely dead; Level 9: above 95% growth control rate; Level 8: above 90% growth control rate; Level 7: above 80% growth control rate; Level 6: above 70% growth control rate; Level 5: above 60% growth control rate; Level 4: above 50% growth control rate; Level 3: above 20% growth control rate; Level 2: 5%-20% growth control rate; Level 1: below 5% growth control rate. To be noted: 250 g/ha of the active substance; 4 weeks after treatment; ALS inhibitor resistant. An outline of the steps:
as §2

The test system of a further series is shepherd's purse. Described as above. As to conditions: 250 g/ha of the active substance; 4 weeks after treatment; ALS inhibitor resistant. Also on record: key: Level 10: completely dead; Level 9: above 95% growth control rate; Level 8: above 90% growth control rate; Level 7: above 80% growth control rate; Level 6: above 70% growth control rate; Level 5: above 60% growth control rate; Level 4: above 50% growth control rate; Level 3: above 20% growth control rate; Level 2: 5%-20% growth control rate; Level 1: below 5% growth control rate. An outline of the steps: as §2

Where [3] appears, read: 2 g/mu, sprayed at 4 leaf stage.
Setting [4] is: 4 g/mu, sprayed at 4 leaf stage.
Setting [5] is: 8 g/mu, sprayed at 4 leaf stage.
Setting [6] is: 16 g/mu, sprayed at 4 leaf stage.
Setting [7] is: 32 g/mu, sprayed at 4 leaf stage.
The mark [8] stands for this setting: 250 g/ha of the active substance.

As for `Cn1nc(C2CC2)c(C(=O)c2ccc(C(F)(F)F)c(N3CCCCC3=O)c2Cl)c1O` [Compound 046], the “weed control effect, Indian mallow (level)” value in the series with Indian mallow is on record as 10. Moreover, the “weed control effect, Bidens bipinnata (level)” value in the series with bidens bipinnata is 2 (Level 2: 5%-20% growth control rate). Also, the “weed control effect, Crab grass (level)” value in the series on crab grass is 6 (Level 6: above 70% growth control rate). Also, in the series with echinochloa, the “weed control effect, Echinochloa (level)” value is reported as 6 (Level 6: above 70% growth control rate). Moreover, the “weed control effect, Green foxtail (level)” value with foxtail was determined as 10. Besides, the “weed control effect, Rorippa indica (level)” value with rorippa indica is listed as 10. The “effect on crop, Corn (level)” value with corn was 4 (Level 4: above 50% growth control rate). Besides, the “effect on crop, Wheat (level)” value in the series on wheat [1] is 0. Also, the “effect on crop, Rice (level)” value in the series on rice was 5 (Level 5: above 60% growth control rate). Moreover, the “Alopecurus japonicas weed controlling effect (activity level)” value is reported as 6 (Level 6: above 70% growth control rate) in the series with alopecurus japonicas (1 g/mu), 9 (Level 9: above 95% growth control rate) in the series with alopecurus japonicas (2 g/mu), 10 with alopecurus japonicas (4 g/mu) and 10 in the series with alopecurus japonicas (8 g/mu). Also, the “Wheat (activity level, crop damage)” value in the series on wheat [2] (setting [3]) is 0; in the series with wheat [2] (setting [4]) it was 0; in the series with wheat [2] (setting [5]), 0; with wheat [2] (setting [6]), 0; with wheat [2] (setting [7]), 1 (Level 1: below 5% growth control rate); with wheat [2] (setting [8]), 0. Moreover, the “chickweed weed controlling effect (activity level)” value in the series on chickweed came out at 10. For the same molecule, the “corn gromwell weed controlling effect (activity level)” value in the series on corn gromwell was determined as 10. For the same molecule, the “flixweed weed controlling effect (activity level)” value in the series with flixweed stood at 10. Besides, the “shepherd's purse weed controlling effect (activity level)” value in the series with shepherd's purse came to 10.
For `CCOc1c(C(=O)Oc2c(C(=O)c3ccc(C(F)(F)F)c(N4CCCCC4=O)c3Cl)c(C3CC3)nn2C)cnn1C` [Compound 048], the “weed control effect, Indian mallow (level)” value in the series with Indian mallow came out at 10. The “weed control effect, Bidens bipinnata (level)” value with bidens bipinnata is reported as 4 (Level 4: above 50% growth control rate). Also, the “weed control effect, Crab grass (level)” value in the series with crab grass is on record as 7 (Level 7: above 80% growth control rate). The “weed control effect, Echinochloa (level)” value with echinochloa was 6 (Level 6: above 70% growth control rate). Also, in the series with foxtail, the “weed control effect, Green foxtail (level)” value is on record as 8 (Level 8: above 90% growth control rate). In addition, the “weed control effect, Rorippa indica (level)” value in the series with rorippa indica turned out to be 10. For the same molecule, the “effect on crop, Corn (level)” value in the series on corn is 3 (Level 3: above 20% growth control rate). For the same molecule, the “effect on crop, Wheat (level)” value in the series with wheat [1] was 1 (Level 1: below 5% growth control rate). Also, the “effect on crop, Rice (level)” value in the series with rice is given as 5 (Level 5: above 60% growth control rate). In addition, the “Alopecurus japonicas weed controlling effect (activity level)” value is listed as 8 (Level 8: above 90% growth control rate) in the series with alopecurus japonicas (1 g/mu), 10 in the series with alopecurus japonicas (2 g/mu), 10 in the series with alopecurus japonicas (4 g/mu) and 10 with alopecurus japonicas (8 g/mu). For the same molecule, the “Wheat (activity level, crop damage)” value in the series on wheat [2] (setting [3]) is reported as 0; in the series on wheat [2] (setting [4]), 0; with wheat [2] (setting [5]), 0; in the series with wheat [2] (setting [6]), 1 (Level 1: below 5% growth control rate); in the series with wheat [2] (setting [7]), 4 (Level 4: above 50% growth control rate); in the series on wheat [2] (setting [8]) it was 0. Moreover, the “chickweed weed controlling effect (activity level)” value with chickweed came out at 10. For the same molecule, the “corn gromwell weed controlling effect (activity level)” value in the series on corn gromwell turned out to be 10. Besides, in the series on flixweed, the “flixweed weed controlling effect (activity level)” value is on record as 10. For the same molecule, the “shepherd's purse weed controlling effect (activity level)” value with shepherd's purse is recorded as 10.
